Results as given in patent US5278308A, “Iodine derivatives of tetrabenazine” (The Trustees of The University of Pennsylvania, priority 1992, dated 1994).
Like-named read-outs stand apart in the source and are kept apart here.

What was measured:
[1] = Biodistribution in rats (iv injection); assay type: in vivo; details: rat, iv
Experimental: While under ether anesthesia, each rat was injected in the femoral vein with 0.2 mL saline solution containing [^123 I]I-TBZ (1-5uCi) either racemic mixture, peak-A or peak-B. The rats were sacrificed at various time points postinjection by cardiac excision. The tissues were weighed and the radioactivity was measured with a Canberra gamma counter (Model 5000). The percent dose per organ was calculated by a comparison of the tissue counts to suitably diluted aliquots of the injected material. Total activities of blood and muscle were calculated assuming that they were 7% and 40% of total body weight, respectively Results are presented in Tables 3, 4A and 4B.

[2] = Regional brain distribution in rats (dissection, iv injection); assay type: in vivo; details: for Str./Cb (% dose/gram ratio) / Regional brain uptake, Rem / Regional brain uptake, cerebellum / Regional brain uptake, cortex / Regional brain uptake, hippocampus / Regional brain uptake, striatum / tissue uptake at 5 min / tissue uptake at 20 min: rat
Experimental: Regional brain distribution of [^123 I]I-TBZ (with either a racemic mixture, peak A or B) in rats was obtained after an iv injection. By dissecting, weighing and counting samples from different brain regions (cortex, striatum, hippocampus and cerebellum), % dose/gram of the samples was calculated by comparing the sample counts with the counts of the diluted initial dose. The ratio of uptake in each region was obtained by dividing % dose/gram of each region with that of the cerebellum. The effect of tetrahydrobenazine on the uptake of peak A or peak B was investigated by pretreating the rats with the TBZ 3 mg/rat at 3 min before iv injection of [^123 I]I-TBZ. At 20 min. post injection the rats were dissected and the regional brain dissection was carried out as above.

[3] = Protein binding by TCA (10% rat plasma, 30 min, 37° C.); assay type: in vitro ADME; details: rat, 10% plasma, TCA precipitation
Experimental: One ml of 10% rat plasma was mixed with [^123 I]I-TBZ in a test tube and the mixture was incubated for 30 minutes at 37° C. To the mixture 0.4 mL of 10% trichloroacetic acid (TCA) was added. The test tube was centrifuged for 10 min. (4,000 rpm), and the top aqueous layer was removed to another test tube for counting The precipitate was washed with water (0.5 mL×2). The combined water and top aqueous layer was counted. The residual precipitate was also counted. The protein binding was obtained by dividing counts in precipitate with counts in aqueous layers.

[4] = Protein binding by Filter (50% rat plasma, Amicon micropartition system); assay type: in vitro ADME; details: rat, 50% plasma, 30 min, 37° C.
Experimental: One mL of rat plasma (50%) was mixed with [^123 I]I-TBZ in a test tube. After 30 min incubation at 37° C., 50 uL ×3 of liquid was removed as initial dose standard (I.D.); the rest was passed through an Amicon micropartition system (Amicon division, W. R. Grace, Danvers, Mass.) by centrifuging for 20 minutes (2,000 rpm) at 0° C. Four samples (50 uL each) were removed from the filtered solution and counted. The protein binding (% bound) was calculated by using the unit counts in filtrate divided by unit counts in ID.

[5] = 20 min, pretreated with TBZ 3 min before, n = 2
[6] = 120 min, listed as I-TBZ peak A

Brain uptake ([1]; 2 min): 1.2 % Dose/organ
Blood uptake (blood assumed 7% of body weight) ([1]; 5 min): 2.15 ± 0.11 % Dose/organ
Br/Bl (% dose/gram ratio) ([1]; 5 min): 5.51 ± 0.37
Brain uptake ([1]; 5 min): 1.12 ± 0.15 % Dose/organ
Heart uptake ([1]; 5 min): 0.91 ± 0.17 % Dose/organ
Kidney uptake ([1]; 5 min): 4.43 ± 0.56 % Dose/organ
Liver uptake ([1]; 5 min): 21.23 ± 2.66 % Dose/organ
Lung uptake ([1]; 5 min): 2.85 ± 0.52 % Dose/organ
Muscle uptake (muscle assumed 40% of body weight) ([1]; 5 min): 11.96 ± 1.56 % Dose/organ
Skin uptake ([1]; 5 min): 8.72 ± 1.52 % Dose/organ
Spleen uptake ([1]; 5 min): 0.62 ± 0.13 % Dose/organ
Thyroid uptake ([1]; 5 min): 0.08 ± 0.01 % Dose/organ
Blood uptake (blood assumed 7% of body weight) ([1]; 20 min): 1.42 ± 0.56 % Dose/organ
Br/Bl (% dose/gram ratio) ([1]; 20 min): 4.59 ± 1.10
Brain uptake ([1]; 20 min): 0.58 ± 0.01 % Dose/organ
Heart uptake ([1]; 20 min): 0.49 ± 0.04 % Dose/organ
Kidney uptake ([1]; 20 min): 2.21 ± 0.11 % Dose/organ
Liver uptake ([1]; 20 min): 16.16 ± 4.71 % Dose/organ
Lung uptake ([1]; 20 min): 1.65 ± 0.11 % Dose/organ
Muscle uptake (muscle assumed 40% of body weight) ([1]; 20 min): 26.79 ± 7.14 % Dose/organ
Skin uptake ([1]; 20 min): 9.00 ± 5.10 % Dose/organ
Spleen uptake ([1]; 20 min): 0.44 ± 0.06 % Dose/organ
Thyroid uptake ([1]; 20 min): 0.05 ± 0.01 % Dose/organ
Blood uptake (blood assumed 7% of body weight) [1, 5]: 2.05 ± 0.21 % Dose/organ
Br/Bl (% dose/gram ratio) [1, 5]: 4.10 ± 0.27
Brain uptake [1, 5]: 0.85 ± 0.12 % Dose/organ
Heart uptake [1, 5]: 0.61 ± 0.11 % Dose/organ
Kidney uptake [1, 5]: 2.03 ± 0.24 % Dose/organ
Liver uptake [1, 5]: 13.34 ± 4.06 % Dose/organ
Lung uptake [1, 5]: 1.74 ± 0.002 % Dose/organ
Muscle uptake (muscle assumed 40% of body weight) [1, 5]: 29.70 ± 2.56 % Dose/organ
Skin uptake [1, 5]: 7.08 ± 2.33 % Dose/organ
Spleen uptake [1, 5]: 0.06 ± 0.07 % Dose/organ
Thyroid uptake [1, 5]: 0.08 ± 0.01 % Dose/organ
Blood uptake (blood assumed 7% of body weight) ([1]; 60 min): 1.14 ± 0.16 % Dose/organ
Br/Bl (% dose/gram ratio) ([1]; 60 min): 3.05 ± 0.12
Brain uptake ([1]; 60 min): 0.33 ± 0.07 % Dose/organ
Heart uptake ([1]; 60 min): 0.38 ± 0.07 % Dose/organ
Kidney uptake ([1]; 60 min): 1.52 ± 0.28 % Dose/organ
Liver uptake ([1]; 60 min): 10.12 ± 1.26 % Dose/organ
Lung uptake ([1]; 60 min): 1.17 ± 0.06 % Dose/organ
Muscle uptake (muscle assumed 40% of body weight) ([1]; 60 min): 21.88 ± 2.74 % Dose/organ
Skin uptake ([1]; 60 min): 14.76 ± 4.35 % Dose/organ
Spleen uptake ([1]; 60 min): 0.36 ± 0.04 % Dose/organ
Thyroid uptake ([1]; 60 min): 0.07 ± 0.01 % Dose/organ
Blood uptake (blood assumed 7% of body weight) ([1]; 120 min): 0.95 ± 0.03 % Dose/organ
Br/Bl (% dose/gram ratio) ([1]; 120 min): 1.96 ± 0.43
Brain uptake ([1]; 120 min): 0.18 ± 0.04 % Dose/organ
Heart uptake ([1]; 120 min): 0.26 ± 0.03 % Dose/organ
Kidney uptake ([1]; 120 min): 1.05 ± 0.1q
Liver uptake ([1]; 120 min): 7.54 ± 0.77 % Dose/organ
Lung uptake ([1]; 120 min): 0.81 ± 0.14 % Dose/organ
Muscle uptake (muscle assumed 40% of body weight) ([1]; 120 min): 18.56 ± 2.34 % Dose/organ
Skin uptake ([1]; 120 min): 11.22 ± 3.92 % Dose/organ
Spleen uptake ([1]; 120 min): 0.23 ± 0.04 % Dose/organ
Thyroid uptake ([1]; 120 min): 0.07 ± 0.05 % Dose/organ
Str./Cb (% dose/gram ratio) ([2]; 5 min, listed as I-TBZ peak A): 1.09
Regional brain uptake, Rem ([2]; 20 min, listed as I-TBZ peak A): 0.395 ± 0.019 % Dose/g
Regional brain uptake, cerebellum ([2]; 20 min, listed as I-TBZ peak A): 0.362 ± 0.017 % Dose/g
Regional brain uptake, cortex ([2]; 20 min, listed as I-TBZ peak A): 0.420 ± 0.031 % Dose/g
Regional brain uptake, hippocampus ([2]; 20 min, listed as I-TBZ peak A): 0.414 ± 0.032 % Dose/g
Regional brain uptake, striatum ([2]; 20 min, listed as I-TBZ peak A): 0.479 ± 0.014 % Dose/g
Str./Cb (% dose/gram ratio) ([2]; 20 min, listed as I-TBZ peak A): 1.32
Str./Cb (% dose/gram ratio) [2, 5]: 1.12
Regional brain uptake, Rem ([2]; 60 min, listed as I-TBZ peak A): 0.229 ± 0.036 % Dose/g
Regional brain uptake, cerebellum ([2]; 60 min, listed as I-TBZ peak A): 0.225 ± 0.029 % Dose/g
Regional brain uptake, cortex ([2]; 60 min, listed as I-TBZ peak A): 0.234 ± 0.035 % Dose/g
Regional brain uptake, hippocampus ([2]; 60 min, listed as I-TBZ peak A): 0.230 ± 0.048 % Dose/g
Regional brain uptake, striatum ([2]; 60 min, listed as I-TBZ peak A): 0.271 ± 0.046 % Dose/g
Str./Cb (% dose/gram ratio) ([2]; 60 min, listed as I-TBZ peak A): 1.21
Regional brain uptake, Rem [2, 6]: 0.118 ± 0.022 % Dose/g
Regional brain uptake, cerebellum [2, 6]: 0.116 ± 0.026 % Dose/g
Regional brain uptake, cortex [2, 6]: 0.129 ± 0.019 % Dose/g
Regional brain uptake, hippocampus [2, 6]: 0.113 ± 0.041 % Dose/g
Regional brain uptake, striatum [2, 6]: 0.138 ± 0.022 % Dose/g
Str./Cb (% dose/gram ratio) [2, 6]: 1.19
tissue uptake at 5 min ([2]; brain remainder, 5 min, read-out: Regional brain uptake, Rem): 0.74 ± 0.063 %ID/g
tissue uptake at 20 min ([2]; brain remainder, 20 min, pretreated with TBZ 3 min before, n = 2, read-out: Regional brain uptake, Rem): 0.545 ± 0.047 %ID/g
tissue uptake at 5 min ([2]; cerebellum, 5 min, read-out: Regional brain uptake, cerebellum): 0.708 ± 0.044 %ID/g
tissue uptake at 20 min ([2]; cerebellum, 20 min, pretreated with TBZ 3 min before, n = 2, read-out: Regional brain uptake, cerebellum): 0.534 ± 0.032 %ID/g
tissue uptake at 5 min ([2]; cortex, 5 min, read-out: Regional brain uptake, cortex): 0.792 ± 0.096 %ID/g
tissue uptake at 20 min ([2]; cortex, 20 min, pretreated with TBZ 3 min before, n = 2, read-out: Regional brain uptake, cortex): 0.585 ± 0.067 %ID/g
tissue uptake at 5 min ([2]; hippocampus, 5 min, read-out: Regional brain uptake, hippocampus): 0.725 ± 0.066 %ID/g
tissue uptake at 20 min ([2]; hippocampus, 20 min, pretreated with TBZ 3 min before, n = 2, read-out: Regional brain uptake, hippocampus): 0.581 ± 0.075 %ID/g
tissue uptake at 5 min ([2]; striatum, 5 min, read-out: Regional brain uptake, striatum): 0.77 ± 0.019 %ID/g
tissue uptake at 20 min ([2]; striatum, 20 min, pretreated with TBZ 3 min before, n = 2, read-out: Regional brain uptake, striatum): 0.596 %ID/g
fraction unbound at 0.5 h [3]: 0.619
fraction unbound at 0.5 h [4]: 0.182
Structure (SMILES): COc1cc2c(cc1OC)C1CC(O)(C=C[123I])C(CC(C)C)CN1CC2 (single isomer, unassigned) [Peak A]
Regional distribution / selectivity in rat brain (in words) [2]: significantly increased selective regional distribution
